Reference: PMC8151276, “An Integrated Approach toward NanoBRET Tracers for Analysis of GPCR Ligand Engagement” (Molecules, 2021)
One block for each molecule: values may come before it.

Columns and labels:
HTR1A = molecular target: T1, HTR1A (Homo sapiens, UniProt P08908); test: NanoBRET screen HiBiT-HTR1A in HEK293; assay type: binding
T1 construct: purchased Promega (in-house HiBiT-GPCR construct library, NanoBRET)
T1 sequence (P08908 1-422): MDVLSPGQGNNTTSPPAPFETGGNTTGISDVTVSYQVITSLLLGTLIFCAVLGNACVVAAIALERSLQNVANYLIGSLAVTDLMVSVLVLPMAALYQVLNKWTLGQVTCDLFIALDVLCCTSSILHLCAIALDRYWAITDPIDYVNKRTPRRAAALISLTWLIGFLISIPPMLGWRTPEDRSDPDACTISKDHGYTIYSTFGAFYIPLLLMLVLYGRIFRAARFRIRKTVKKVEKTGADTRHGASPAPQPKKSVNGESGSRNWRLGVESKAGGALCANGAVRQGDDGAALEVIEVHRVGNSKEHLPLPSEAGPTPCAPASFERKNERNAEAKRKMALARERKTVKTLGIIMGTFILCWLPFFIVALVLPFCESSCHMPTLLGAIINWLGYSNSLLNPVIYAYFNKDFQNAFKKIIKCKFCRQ
Procedure: (§1) Each tracer candidate was screened across the entire library of HiBiT-GPCR constructs using NanoBRET as the detection modality. As depicted in Figure 4A, the specificity of interactions was evaluated through decrease in BRET due to competitive displacement of a bound tracer by excess parental compound. Each tracer was analyzed for binding to each HiBiT-GPCR fusion in the absence and in the presence of competing parental compound. Briefly, HEK293 cells were transfected with HiBiT-GPCR constructs diluted into promoterless DNA to reduce expression and maximize translocation to the cell surface. Each tracer candidate was then screened at concentrations of 1 μM and 0.1 μM across cells expressing these fusions. Cells were treated for 1.5 h with tracer either alone or in the presence of 20 μM competing parental compound (i.e., control). BRET was measured upon addition of purified LgBiT and subsequent complementation with HiBiT genetically fused to a GPCR. The specificity of interactions was assessed through a decrease in BRET signal due to competitive displacement of the bound tracer. To further gauge the robustness of these interactions, the fold response over the control (i.e., BRETtracer/BRETcontrol) was calculated. We chose a 1.5-fold response, which translates to ≥7-fold signal over noise as the minimal threshold required to score an interaction as positive.
(§2) HiBiT-GPCR DNA constructs were diluted in 10 mM Tris pH 8 to a final concentration of 0.01 μg/μL, arrayed in 96-well plates and stored at −20 °C. For transfection, HEK293 cells were suspended in Opti-MEM (without phenol red) supplemented with 2% fetal bovine serum (Seradigm) and 100 units/mL penicillin–streptomycin (Gibco) at a final concentration of 220,000 cells/mL and dispensed into white 96-well plates at 90 μL/well. Subsequent transfections and screens were carried using an Agilent Bravo Automated Liquid Handling Platform. First, the 96-well HiBiT DNA arrays were diluted 25-fold in Opti-MEM (without serum or phenol red) to a final concentration of 0.0004 μg/μL and 20 μL of the diluted DNAs were transferred into new 96-well plates. Next, promoterless carrier DNA (1 μg/μL) was diluted 25-fold (0.04 μg/μL) and then dispensed into the diluted arrays at 20 μL/well. Following brief mixing, Viafect transfection reagent (Promega) diluted 16-fold into Opti-MEM was dispensed into the plates at 40 μL/well. After mixing by pipetting, plates were incubated for 10 min on the pipetting station deck. The DNA-transfection reagent complexes were then added to plates containing cells. To facilitate the screen, 10 μL of DNA-transfection reagent complexes were added in duplicates to the top 4 and bottom 4 rows, resulting in two identical 48-well arrays per plate. Plates with transfected cells were incubated for 18–20 h at 37 °C/5% CO2. A screen of each tracer across the entire library using two different concentrations requires duplicate plates of transfected cells. Depending on the number of tracers being screened, transfections can be scaled up using the same ratios. The next day, for each tracer, four 20× screening solutions in tracer dilution buffer (Promega) were prepared: two duplicates at final concentration of 20 μM and two duplicates at a final concentration of 2 μM. […] The four resulting solutions were diluted 4-fold in Opti-MEM without serum or phenol red to generate 5× solutions (5 µM and 0.5 µM tracer +/− 100 μM competing compound). To screen the library, a BioTek MultiFlo FX liquid dispenser was used to dispense 22.5 µL of tracer solution to the top 4 rows and 22.5 µL tracer + competing compound solution to the 4 bottom rows. Plates were briefly mixed on an orbital shaker and incubated for 1.5 h at room temperature. […] Plates were briefly mixed on an orbital shaker and incubated for 15 min to allow complementation.

HTR1F = molecular target: T2, HTR1F (Homo sapiens, UniProt P30939); test: NanoBRET screen HiBiT-HTR1F in HEK293; assay type: binding
T2 construct: purchased Promega (in-house HiBiT-GPCR construct library, NanoBRET)
T2 sequence (P30939 1-366): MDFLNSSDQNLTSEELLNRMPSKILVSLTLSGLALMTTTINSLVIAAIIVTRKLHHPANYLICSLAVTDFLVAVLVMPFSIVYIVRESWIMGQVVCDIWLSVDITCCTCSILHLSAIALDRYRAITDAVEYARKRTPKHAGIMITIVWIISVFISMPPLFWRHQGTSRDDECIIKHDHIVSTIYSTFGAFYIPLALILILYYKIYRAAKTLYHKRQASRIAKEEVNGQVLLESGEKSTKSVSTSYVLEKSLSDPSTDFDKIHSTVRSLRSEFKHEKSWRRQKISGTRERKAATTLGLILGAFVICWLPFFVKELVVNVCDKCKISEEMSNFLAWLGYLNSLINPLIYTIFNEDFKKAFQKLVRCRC
Procedure: as §1, §2

Compound: CN1CCN(C2=Nc3cc(Cl)ccc3Nc3ccc(CNC(=O)CCOCCOCCOCCOCCNC(=O)CCc4ccc5n4[B-](F)(F)[N+]4=C(c6ccc[nH]6)C=CC4=C5)cc32)CC1 [Clozapine-b-2-NB590]
NanoBRET Fold Response (HTR1A; HTR1A, 0.1μM tracer): 0.98
NanoBRET Fold Response (HTR1A; HTR1A, 1μM tracer): 1.21
NanoBRET Fold Response (HTR1F; HTR1F, 0.1μM tracer): 1.00
NanoBRET Fold Response (HTR1F; HTR1F, 1μM tracer): 1.28

NanoBRET Fold Response (HTR1A; 0.1μM tracer): 1.02
NanoBRET Fold Response (HTR1A; 1μM tracer): 1.02
NanoBRET Fold Response (HTR1F; 0.1μM tracer): 0.79
NanoBRET Fold Response (HTR1F; 1μM tracer): 0.79
Compound: COc1ccc2c(n1)c(CCNC(C)=O)cn2CCNC(=O)CCc1ccc2n1[B-](F)(F)[N+]1=C(c3ccc[nH]3)C=CC1=C2 [Azamelatonin-1-NB590]

Compound: CN(CCC=C1c2ccccc2CCc2ccccc21)C(=O)CCOCCOCCOCCOCCNC(=O)CCc1ccc2n1[B-](F)(F)[N+]1=C(c3ccc[nH]3)C=CC1=C2 [Amitriptyline-e-2-NB590]
NanoBRET Fold Response (HTR1A; tracer at 1μM): 0.99
NanoBRET Fold Response (HTR1F; tracer at 1μM): 1.02

Compound: O=C(CCc1ccc2n1[B-](F)(F)[N+]1=C(c3ccc[nH]3)C=CC1=C2)NCc1ccc(C(=O)NCCOCCOCCNCC(O)COc2cccc3ccccc23)cc1 (stereo not drawn) [Propranolol-3-NB590]
NanoBRET Fold Response (HTR1A; HTR1A, 0.1μM): 1.38
NanoBRET Fold Response (HTR1A; HTR1A, 1μM): 1.39
NanoBRET Fold Response (HTR1F; HTR1F, 0.1μM): 1.08
NanoBRET Fold Response (HTR1F; HTR1F, 1μM): 0.99

NanoBRET Fold Response (HTR1A; HTR1A, 0.1μM tracer): 1.16
NanoBRET Fold Response (HTR1A; HTR1A, 1μM tracer): 0.98
NanoBRET Fold Response (HTR1F; HTR1F, 0.1μM tracer): 1.77
NanoBRET Fold Response (HTR1F; HTR1F, 1μM tracer): 2.34
Compound: O=C(CCOCCOCCOCCOCCNC(=O)CCc1ccc2n1[B-](F)(F)[N+]1=C(c3ccc[nH]3)C=CC1=C2)NCCCN1CCN(C2=Nc3cc(Cl)ccc3Nc3ccccc32)CC1 [Clozapine-a-2-NB590]
